From patent publication US12171230B2, “Herbicidal compositions” (Bayer Aktiengesellschaft, priority 2018, dated 2024)

How the values were obtained:
Format in all cases: in vivo
Panicum maximum = assay: Post-emergence herbicidal action against Panicum maximum; settings: g of a.i./ha: 200, 100, 100 + 200
Method: When the observed efficacies exceed the formal sum total of the values of the tests with individual applications, they also exceed the expected value according to Colby, which is calculated using the formula below and is likewise regarded as an indication of synergism (cf. S. R. Colby; in Weeds 15 (1967) p. 20 to 22): E^C=A+B−([…])
Here: • A=efficacy of the active compound (A) in % at an application rate of a g a.i./ha; • B=efficacy of the active compound (B) in % at an application rate of b g a.i./ha; • E^C=expected value of the effect of the combination (A)+(B) in % at the combined application rate a+b g a.i./ha.
Seeds or rhizome pieces of mono- and dicotyledonous weeds are placed in sandy loam in pots, covered with soil and grown in a greenhouse under good growth conditions (temperature, air humidity, water supply). Three weeks after sowing, the test plants were treated at the three-leaf stage with the compositions according to the invention. The compositions according to the invention formulated as spray powders or as emulsion concentrates were sprayed onto the green plant parts in various dosages with an application rate of 300 to 800 l/ha of water (equivalent). After the test plants have been left to stand in the greenhouse under optimal growth conditions for about 3 to 4 weeks, the action of the preparations is scored visually in comparison to untreated controls. The compositions according to the invention also have good post-emergence herbicidal activity against a broad spectrum of economically important gramineous and broadleaf weeds.

Lamium purpureum = assay: Post-emergence herbicidal action against Lamium purpureum
Method in brief: (§1)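 Post-emergence foliar application: sandy-loam pots, greenhouse, treatment at three-leaf stage, 300–800 l/ha spray volume. Readout is visual % effect at 3–4 weeks, compared with the Colby expected value for mixtures.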

Matricaria inodora = assay: Post-emergence herbicidal action against Matricaria inodora
Echinochloa crus-galli = assay: Post-emergence herbicidal action against Echinochloa crus-galli; settings: 21 DAT; 30 g of a.i./ha
Method in brief: as §1

Eleusine indica = assay: Post-emergence herbicidal action against Eleusine indica; settings: (Z3) post-emergence, g of a.i./ha: 270, 90, 15, 5, 5 + 270, 15 + 90
Description: (§2) The following abbreviations are used in the description and the tables that follow: • g of a.i./ha=grams of active substance (active ingredient) (=100% active compound) per hectare; • The sum total of the effects of the individual applications is reported under E^A; • expected values according to Colby are each reported under E^C.
(§3) The rating period is reported in days after application (DAT).

Abutilon theophrasti = assay: Post-emergence herbicidal action against Abutilon theophrasti; settings: 21 DAT
Brachiaria plantaginea = assay: Post-emergence herbicidal action against Brachiaria plantaginea; settings: (Z61) post-emergence; g of a.i./ha: 200, 100, 100 + 200
Description: as §2, §3

Bromus sterilis = assay: Post-emergence herbicidal action against Bromus sterilis
Method in brief: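 Rates are given as grams of active ingredient (100% active compound) per hectare. E^A is the summed effect of the individual applications and E^C the expected value by Colby, with ratings timed in days after application (DAT).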

Brachiaria decumbens = assay: Post-emergence herbicidal action against Brachiaria decumbens; settings: g of a.i./ha: 200, 100, 100 + 200
Description: as §2, §3

O=C(Nc1ccc(F)cc1F)c1cccnc1Oc1cccc(C(F)(F)F)c1 [(B2.18) Diflufenican]
5%: Herbicidal action 14 DAT against Bromus sterilis (Bromus sterilis; (Z119) post-emergence, g of a.i./ha: 1, 270, 90, 1 + 270, 1 + 90) | Herbicidal action 14 DAT against Bromus sterilis (Bromus sterilis; (Z148) post-emergence, g of a.i./ha: 4, 1, 270, 90, 30, 4 + 270, 4 + 90, 4 + 30, 1 + 30, 270 g of a.i./ha)
20%: Herbicidal action 14 DAT against Lamium purpureum L. (Lamium purpureum; 30 g of a.i./ha) | Herbicidal action 28 DAT against Lamium purpureum L. (Lamium purpureum; 90 g of a.i./ha) | Herbicidal action 28 DAT against Lamium purpureum L. (Lamium purpureum; (Z61) post-emergence, g of a.i./ha by row: 4, 1, 270, 30, 90, 4 + 270, 4 + 30, 1 + 270, 1 + 90, 1 + 30) | Herbicidal action 14 DAT against Lamium purpureum L. (Lamium purpureum; (Z119) post-emergence, g of a.i./ha by row: 16, 30, 16 + 30) | Herbicidal action 21 DAT against Eleusine indica (Eleusine indica; 90 g of a.i./ha) | Herbicidal action 28 DAT against Bromus sterilis (Bromus sterilis; (Z61) post-emergence, g of a.i./ha: 1, 270, 90, 1 + 270, 1 + 90, 270 g of a.i./ha)
30%: Herbicidal action 21 DAT against Eleusine indica (Eleusine indica; 270 g of a.i./ha)
10%: Herbicidal action 28 DAT against Lamium purpureum L. (Lamium purpureum; 30 g of a.i./ha) | Herbicidal action against Echinochloa crus-galli (Echinochloa crus-galli) | Herbicidal action against Abutilon theophrasti (Abutilon theophrasti; 30 g of a.i./ha) | Herbicidal action against Abutilon theophrasti (Abutilon theophrasti; 90 g of a.i./ha) | Herbicidal action 14 DAT against Bromus sterilis (Bromus sterilis; (Z61) post-emergence, g of a.i./ha by row: 4, 1, 270, 90, 4 + 270, 1 + 270, 1 + 90, 90 g of a.i./ha)
0%: Herbicidal action 28 DAT against Panicum maximum (Panicum maximum) | Herbicidal action 28 DAT against Matricaria inodora (Matricaria inodora; (Z61) post-emergence, g of a.i./ha: 4, 1, 30, 4 + 30, 1 + 30) | Herbicidal action 28 DAT against Brachiaria plantaginea (Brachiaria plantaginea) | Herbicidal action 28 DAT against Bromus sterilis (Bromus sterilis; (Z119) post-emergence, g of a.i./ha: 1, 270, 1 + 270) | Herbicidal action 28 DAT against Bromus sterilis (Bromus sterilis; (Z148) post-emergence, g of a.i./ha: 1, 270, 90, 30, 1 + 270, 1 + 90, 1 + 30) | Herbicidal action 14 DAT against Bromus sterilis (Bromus sterilis; (Z148) post-emergence, g of a.i./ha: 4, 1, 270, 90, 30, 4 + 270, 4 + 90, 4 + 30, 1 + 30, 30 g of a.i./ha) | Herbicidal action 28 DAT against Brachiaria decumbens (Brachiaria decumbens)
50%: Herbicidal action 14 DAT against Matricaria inodora (Matricaria inodora; 90 g of a.i./ha) | Herbicidal action 28 DAT against Matricaria inodora (Matricaria inodora; (Z119) post-emergence, g of a.i./ha by row: 16, 4, 270, 90, 16 + 270, 4 + 90)
25%: Herbicidal action against Abutilon theophrasti (Abutilon theophrasti; 270 g of a.i./ha)
15%: Herbicidal action 14 DAT against Bromus sterilis (Bromus sterilis; (Z61) post-emergence, g of a.i./ha by row: 4, 1, 270, 90, 4 + 270, 1 + 270, 1 + 90, 270 g of a.i./ha) | Herbicidal action 28 DAT against Bromus sterilis (Bromus sterilis; (Z61) post-emergence, g of a.i./ha: 1, 270, 90, 1 + 270, 1 + 90, 90 g of a.i./ha)
